Laboratory results reported in the supplement of paper PMC4862054.

tested on: MCF-10A; assay: normalised response (% of control), CellTiter-Glo; higher = more viable cells (100 = DMSO, 0 = benzethonium chloride kill control); conditions: incubation time: 72 h
How it was run: (§1)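 Each entry is the normalised signal at a single concentration within a series. The series comprised 5 concentrations in 10-fold steps over a compound-specific 10,000-fold range, placed in 384-well plates into which breast cancer cell lines were seeded as 20 µl suspension and incubated 72 h. CellTox Green (485/520 nm) fluorescence and then CellTiter-Glo luminescence were read, with signals normalised per plate to 0.1 % DMSO (100) and a positive kill control (0).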

First: Cc1ccc([N+](=O)[O-])cc1S(=O)(=O)N(C)/N=C/c1cnc2ccc(Br)cn12 [PIK-75] (10 nM)
Second: Cn1cnc2c(F)c(Nc3ccc(Br)cc3Cl)c(C(=O)NOCCO)cc21 [Selumetinib] (10 nM)
The normalised response of the first is higher: 108% for the first, 77.4% for the second.

First: CC(=O)c1c(C)c2cnc(Nc3ccc(N4CCNCC4)cn3)nc2n(C2CCCC2)c1=O [Palbociclib] (1 nM)
Second: CC(C)(C)c1cnc(CSc2cnc(NC(=O)C3CCNCC3)s2)o1 [SNS-032] (10 nM)
The normalised response of the first is lower: 89.3% for the first, 105% for the second.

First: CC(=O)c1c(C)c2cnc(Nc3ccc(N4CCNCC4)cn3)nc2n(C2CCCC2)c1=O [Palbociclib] (10 nM)
Second: COc1cc(F)c(F)c(Nc2ccc(I)cc2F)c1NS(=O)(=O)C1(C[C@H](O)CO)CC1 [Refametinib] (1 nM)
The normalised response of the first is higher: 97.3% for the first, 79.4% for the second.

Compared with `CC[C@@H]1C(=O)OC[C@@H]1Cc1cncn1C` [Pilocarpine] (40 nM), `COc1cc(F)c(F)c(Nc2ccc(I)cc2F)c1NS(=O)(=O)C1(C[C@H](O)CO)CC1` [Refametinib] (10 nM) is lower in normalised response: 98.1% for the first, 58.5% for the second.

tested on: HCC1143; assay: as above; conditions: incubation time: 72 h
How it was run: as §1

Compared with `CC1(C)CCC(CN2CCN(c3ccc(C(=O)NS(=O)(=O)c4ccc(NCC5CCOCC5)c([N+](=O)[O-])c4)c(Oc4cnc5[nH]ccc5c4)c3)CC2)=C(c2ccc(Cl)cc2)C1` [ABT-199] (1000 nM), `CC(=O)c1c(C)c2cnc(Nc3ccc(N4CCNCC4)cn3)nc2n(C2CCCC2)c1=O` [Palbociclib] (1 nM) is lower in normalised response: 101% for the first, 88% for the second.

First: CC(=O)N(O)CCCCCNC(=O)CCC(=O)N(O)CCCCCNC(=O)CCC(=O)N(O)CCCCCN [Deferoxamine] (1000 nM)
Second: C[C@]12CC[C@@H]3c4ccc(OC(=O)N(CCCl)CCCl)cc4CC[C@H]3[C@@H]1CC[C@@H]2O [Estramustine] (1000 nM)
The normalised response of the first is lower: 79.5% for the first, 93.5% for the second.

Going from `Cc1ccc([N+](=O)[O-])cc1S(=O)(=O)N(C)/N=C/c1cnc2ccc(Br)cn12` [PIK-75] (1 nM) to `Cn1cnc2c(F)c(Nc3ccc(Br)cc3Cl)c(C(=O)NOCCO)cc21` [Selumetinib] (10 nM), the normalised response falls from 93.8% to 91%.

First: Cc1ccc([N+](=O)[O-])cc1S(=O)(=O)N(C)/N=C/c1cnc2ccc(Br)cn12 [PIK-75] (10 nM)
Second: CC(=O)c1c(C)c2cnc(Nc3ccc(N4CCNCC4)cn3)nc2n(C2CCCC2)c1=O [Palbociclib] (10 nM)
The normalised response of the first is lower: 90.2% for the first, 94.5% for the second.

First: CC[C@@H]1C(=O)OC[C@@H]1Cc1cncn1C [Pilocarpine] (40 nM)
Second: CC(C)(C)c1cnc(CSc2cnc(NC(=O)C3CCNCC3)s2)o1 [SNS-032] (10 nM)
The normalised response of the first is higher: 103% for the first, 89.7% for the second.

With `COc1cc(F)c(F)c(Nc2ccc(I)cc2F)c1NS(=O)(=O)C1(C[C@H](O)CO)CC1` [Refametinib] (1 nM) the normalised response was 93.6%.
Molecule `COc1cc(F)c(F)c(Nc2ccc(I)cc2F)c1NS(=O)(=O)C1(C[C@H](O)CO)CC1` [Refametinib] (10 nM) has a normalised response of 95.8%.

tested on: MFM-223; assay: as above; conditions: incubation time: 72 h
How it was run: as §1

First: CC1(C)CCC(CN2CCN(c3ccc(C(=O)NS(=O)(=O)c4ccc(NCC5CCOCC5)c([N+](=O)[O-])c4)c(Oc4cnc5[nH]ccc5c4)c3)CC2)=C(c2ccc(Cl)cc2)C1 [ABT-199] (1000 nM)
Second: CC(=O)c1c(C)c2cnc(Nc3ccc(N4CCNCC4)cn3)nc2n(C2CCCC2)c1=O [Palbociclib] (1 nM)
The normalised response of the first is higher: 94.5% for the first, 90.3% for the second.

Compared with `CC(=O)N(O)CCCCCNC(=O)CCC(=O)N(O)CCCCCNC(=O)CCC(=O)N(O)CCCCCN` [Deferoxamine] (1000 nM), `C[C@]12CC[C@@H]3c4ccc(OC(=O)N(CCCl)CCCl)cc4CC[C@H]3[C@@H]1CC[C@@H]2O` [Estramustine] (1000 nM) is lower in normalised response: 89.5% for the first, 86.2% for the second.

First: Cc1ccc([N+](=O)[O-])cc1S(=O)(=O)N(C)/N=C/c1cnc2ccc(Br)cn12 [PIK-75] (1 nM)
Second: Cn1cnc2c(F)c(Nc3ccc(Br)cc3Cl)c(C(=O)NOCCO)cc21 [Selumetinib] (10 nM)
The normalised response of the first is higher: 92.2% for the first, 90.8% for the second.

First: Cc1ccc([N+](=O)[O-])cc1S(=O)(=O)N(C)/N=C/c1cnc2ccc(Br)cn12 [PIK-75] (10 nM)
Second: CC(=O)c1c(C)c2cnc(Nc3ccc(N4CCNCC4)cn3)nc2n(C2CCCC2)c1=O [Palbociclib] (10 nM)
The normalised response of the first is higher: 92.7% for the first, 91.2% for the second.

First: CC[C@@H]1C(=O)OC[C@@H]1Cc1cncn1C [Pilocarpine] (40 nM)
Second: CC(C)(C)c1cnc(CSc2cnc(NC(=O)C3CCNCC3)s2)o1 [SNS-032] (10 nM)
The normalised response of the first is lower: 96.1% for the first, 97.2% for the second.

`COc1cc(F)c(F)c(Nc2ccc(I)cc2F)c1NS(=O)(=O)C1(C[C@H](O)CO)CC1` [Refametinib] (1 nM) showed a normalised response of 94.4%.
`COc1cc(F)c(F)c(Nc2ccc(I)cc2F)c1NS(=O)(=O)C1(C[C@H](O)CO)CC1` [Refametinib] (10 nM) showed a normalised response of 87.9%.

tested on: DU-4475; assay: as above; conditions: incubation time: 72 h
How it was run: as §1

First: CC1(C)CCC(CN2CCN(c3ccc(C(=O)NS(=O)(=O)c4ccc(NCC5CCOCC5)c([N+](=O)[O-])c4)c(Oc4cnc5[nH]ccc5c4)c3)CC2)=C(c2ccc(Cl)cc2)C1 [ABT-199] (1000 nM)
Second: CC(=O)c1c(C)c2cnc(Nc3ccc(N4CCNCC4)cn3)nc2n(C2CCCC2)c1=O [Palbociclib] (1 nM)
The normalised response of the first is lower: 90.6% for the first, 97.8% for the second.

First: CC(=O)N(O)CCCCCNC(=O)CCC(=O)N(O)CCCCCNC(=O)CCC(=O)N(O)CCCCCN [Deferoxamine] (1000 nM)
Second: C[C@]12CC[C@@H]3c4ccc(OC(=O)N(CCCl)CCCl)cc4CC[C@H]3[C@@H]1CC[C@@H]2O [Estramustine] (1000 nM)
The normalised response of the first is lower: 85.8% for the first, 88.5% for the second.

First: Cc1ccc([N+](=O)[O-])cc1S(=O)(=O)N(C)/N=C/c1cnc2ccc(Br)cn12 [PIK-75] (1 nM)
Second: Cn1cnc2c(F)c(Nc3ccc(Br)cc3Cl)c(C(=O)NOCCO)cc21 [Selumetinib] (10 nM)
The normalised response of the first is higher: 95.6% for the first, 95.1% for the second.

Going from `Cc1ccc([N+](=O)[O-])cc1S(=O)(=O)N(C)/N=C/c1cnc2ccc(Br)cn12` [PIK-75] (10 nM) to `CC(=O)c1c(C)c2cnc(Nc3ccc(N4CCNCC4)cn3)nc2n(C2CCCC2)c1=O` [Palbociclib] (10 nM), the normalised response rises from 97% to 97.2%.

Going from `CC[C@@H]1C(=O)OC[C@@H]1Cc1cncn1C` [Pilocarpine] (40 nM) to `CC(C)(C)c1cnc(CSc2cnc(NC(=O)C3CCNCC3)s2)o1` [SNS-032] (10 nM), the normalised response falls from 102% to 99.2%.

Molecule `COc1cc(F)c(F)c(Nc2ccc(I)cc2F)c1NS(=O)(=O)C1(C[C@H](O)CO)CC1` [Refametinib] (1 nM) has a normalised response of 104%.
`COc1cc(F)c(F)c(Nc2ccc(I)cc2F)c1NS(=O)(=O)C1(C[C@H](O)CO)CC1` [Refametinib] (10 nM) gave a normalised response of 92%.

tested on: MDA-MB-468; assay: as above; conditions: incubation time: 72 h
How it was run: as §1

Going from `CC1(C)CCC(CN2CCN(c3ccc(C(=O)NS(=O)(=O)c4ccc(NCC5CCOCC5)c([N+](=O)[O-])c4)c(Oc4cnc5[nH]ccc5c4)c3)CC2)=C(c2ccc(Cl)cc2)C1` [ABT-199] (1000 nM) to `CC(=O)c1c(C)c2cnc(Nc3ccc(N4CCNCC4)cn3)nc2n(C2CCCC2)c1=O` [Palbociclib] (1 nM), the normalised response falls from 93.6% to 91.9%.

Compared with `CC(=O)N(O)CCCCCNC(=O)CCC(=O)N(O)CCCCCNC(=O)CCC(=O)N(O)CCCCCN` [Deferoxamine] (1000 nM), `C[C@]12CC[C@@H]3c4ccc(OC(=O)N(CCCl)CCCl)cc4CC[C@H]3[C@@H]1CC[C@@H]2O` [Estramustine] (1000 nM) is higher in normalised response: 63.3% for the first, 87.1% for the second.

First: Cc1ccc([N+](=O)[O-])cc1S(=O)(=O)N(C)/N=C/c1cnc2ccc(Br)cn12 [PIK-75] (1 nM)
Second: Cn1cnc2c(F)c(Nc3ccc(Br)cc3Cl)c(C(=O)NOCCO)cc21 [Selumetinib] (10 nM)
The normalised response of the first is higher: 94.9% for the first, 94.8% for the second.

Going from `Cc1ccc([N+](=O)[O-])cc1S(=O)(=O)N(C)/N=C/c1cnc2ccc(Br)cn12` [PIK-75] (10 nM) to `CC(=O)c1c(C)c2cnc(Nc3ccc(N4CCNCC4)cn3)nc2n(C2CCCC2)c1=O` [Palbociclib] (10 nM), the normalised response rises from 82.2% to 92.4%.

Compared with `CC[C@@H]1C(=O)OC[C@@H]1Cc1cncn1C` [Pilocarpine] (40 nM), `CC(C)(C)c1cnc(CSc2cnc(NC(=O)C3CCNCC3)s2)o1` [SNS-032] (10 nM) is higher in normalised response: 94.7% for the first, 96.7% for the second.

For `COc1cc(F)c(F)c(Nc2ccc(I)cc2F)c1NS(=O)(=O)C1(C[C@H](O)CO)CC1` [Refametinib] (1 nM), the normalised response was 92.7%.
With `COc1cc(F)c(F)c(Nc2ccc(I)cc2F)c1NS(=O)(=O)C1(C[C@H](O)CO)CC1` [Refametinib] (10 nM) the normalised response was 87.2%.

tested on: HDQ-P1; assay: as above; conditions: incubation time: 72 h
How it was run: as §1

First: CC1(C)CCC(CN2CCN(c3ccc(C(=O)NS(=O)(=O)c4ccc(NCC5CCOCC5)c([N+](=O)[O-])c4)c(Oc4cnc5[nH]ccc5c4)c3)CC2)=C(c2ccc(Cl)cc2)C1 [ABT-199] (1000 nM)
Second: CC(=O)c1c(C)c2cnc(Nc3ccc(N4CCNCC4)cn3)nc2n(C2CCCC2)c1=O [Palbociclib] (1 nM)
The normalised response of the first is higher: 97.4% for the first, 90.1% for the second.

First: CC(=O)N(O)CCCCCNC(=O)CCC(=O)N(O)CCCCCNC(=O)CCC(=O)N(O)CCCCCN [Deferoxamine] (1000 nM)
Second: C[C@]12CC[C@@H]3c4ccc(OC(=O)N(CCCl)CCCl)cc4CC[C@H]3[C@@H]1CC[C@@H]2O [Estramustine] (1000 nM)
The normalised response of the first is lower: 93.6% for the first, 103% for the second.

Compared with `Cc1ccc([N+](=O)[O-])cc1S(=O)(=O)N(C)/N=C/c1cnc2ccc(Br)cn12` [PIK-75] (1 nM), `Cn1cnc2c(F)c(Nc3ccc(Br)cc3Cl)c(C(=O)NOCCO)cc21` [Selumetinib] (10 nM) is lower in normalised response: 98.8% for the first, 86.6% for the second.

First: Cc1ccc([N+](=O)[O-])cc1S(=O)(=O)N(C)/N=C/c1cnc2ccc(Br)cn12 [PIK-75] (10 nM)
Second: CC(=O)c1c(C)c2cnc(Nc3ccc(N4CCNCC4)cn3)nc2n(C2CCCC2)c1=O [Palbociclib] (10 nM)
The normalised response of the first is lower: 95.5% for the first, 97.9% for the second.

First: CC[C@@H]1C(=O)OC[C@@H]1Cc1cncn1C [Pilocarpine] (40 nM)
Second: CC(C)(C)c1cnc(CSc2cnc(NC(=O)C3CCNCC3)s2)o1 [SNS-032] (10 nM)
The normalised response of the first is higher: 98.3% for the first, 92.1% for the second.

Work on `COc1cc(F)c(F)c(Nc2ccc(I)cc2F)c1NS(=O)(=O)C1(C[C@H](O)CO)CC1` [Refametinib] (1 nM) yielded a normalised response of 92.8%.
In the case of `COc1cc(F)c(F)c(Nc2ccc(I)cc2F)c1NS(=O)(=O)C1(C[C@H](O)CO)CC1` [Refametinib] (10 nM), the normalised response is reported as 89.2%.

tested on: MDA-MB-453; assay: as above; conditions: incubation time: 72 h
How it was run: as §1

First: CC1(C)CCC(CN2CCN(c3ccc(C(=O)NS(=O)(=O)c4ccc(NCC5CCOCC5)c([N+](=O)[O-])c4)c(Oc4cnc5[nH]ccc5c4)c3)CC2)=C(c2ccc(Cl)cc2)C1 [ABT-199] (1000 nM)
Second: CC(=O)N(O)CCCCCNC(=O)CCC(=O)N(O)CCCCCNC(=O)CCC(=O)N(O)CCCCCN [Deferoxamine] (1000 nM)
The normalised response of the first is higher: 102% for the first, 84.2% for the second.
